Assays:
Experiment in all cases: relative viability (nuclei count vs DMSO), 5 days (fraction); higher = more cells survive
[1] = system: NCI-H1650; details: first compound 8 µM
Procedure, shortened: (§1)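 Lung cancer cell lines in 1536-well plates got either a single drug or a fixed anchor-drug dose together with five library-drug doses (not always all listed) in √10 steps, by pin tool, on the day after seeding. Nuclei were counted after 5 days, and relative viability is the treated-to-vehicle ratio of nuclei counts. Values are medians of duplicate plates.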

[2] = system: NCI-H1734
Procedure, shortened: as §1

[3] = system: NCI-H1792
Procedure, shortened: as §1

[4] = system: NCI-H1975
Procedure, shortened: as §1

[5] = system: NCI-H1993
Procedure, shortened: as §1

[6] = system: NCI-H2085
Procedure, shortened: as §1

[7] = system: NCI-H2405
Procedure, shortened: as §1

[8] = system: NCI-H3122
Procedure, shortened: as §1

[9] = system: NCI-H460
Procedure, shortened: as §1

[10] = system: NCI-H520
Procedure, shortened: as §1

[11] = system: NCI-H838
Procedure, shortened: as §1

[12] = system: SK-LU-1
Procedure, shortened: as §1

Work on `C=C1C(=O)O[C@@H](CCCCCCCC)[C@@H]1C(=O)O` [C-75] + CC(=O)Nc1cccc(-n2c(=O)n(C3CC3)c(=O)c3c(Nc4ccc(I)cc4F)n(C)c(=O)c(C)c32)c1 [Trametinib] (partner 0.02 µM) yielded a relative viability [1] of 0.555, a relative viability ([2]; first compound 0.08 µM) of 0.664 and a relative viability ([2]; first compound 0.253 µM) of 0.78. The relative viability ([2]; first compound 0.8 µM) was 0.664, the relative viability ([2]; first compound 2.53 µM) was 0.524 and the relative viability ([2]; first compound 8 µM) was 0.691. For the same molecule, the relative viability ([3]; first compound 0.08 µM) was 0.474, the relative viability ([3]; first compound 0.253 µM) was 0.574 and the relative viability ([3]; first compound 0.8 µM) was 0.438. The relative viability ([3]; first compound 2.53 µM) was 0.341, the relative viability ([3]; first compound 8 µM) was 0.452 and the relative viability ([4]; first compound 0.08 µM) was 0.452. For the same molecule, the relative viability ([4]; first compound 0.253 µM) was 0.309, the relative viability ([4]; first compound 0.8 µM) was 0.305 and the relative viability ([4]; first compound 2.53 µM) was 0.319. For the same molecule, the relative viability ([4]; first compound 8 µM) was 0.41, the relative viability ([5]; first compound 0.08 µM) was 0.573 and the relative viability ([5]; first compound 0.253 µM) was 0.541. For the same molecule, the relative viability ([5]; first compound 0.8 µM) was 0.507, the relative viability ([5]; first compound 2.53 µM) was 0.576 and the relative viability ([5]; first compound 8 µM) was 0.557. For the same molecule, the relative viability ([6]; first compound 0.08 µM) was 0.519, the relative viability ([6]; first compound 0.253 µM) was 0.666 and the relative viability ([6]; first compound 0.8 µM) was 0.466. For the same molecule, the relative viability ([6]; first compound 2.53 µM) was 0.559, the relative viability ([6]; first compound 8 µM) was 0.521 and the relative viability ([7]; first compound 0.08 µM) was 0.635. The relative viability ([7]; first compound 0.253 µM) was 0.47, the relative viability ([7]; first compound 0.8 µM) was 0.691 and the relative viability ([7]; first compound 2.53 µM) was 0.575. For the same molecule, the relative viability ([7]; first compound 8 µM) was 0.784, the relative viability ([8]; first compound 0.08 µM) was 0.261 and the relative viability ([8]; first compound 0.253 µM) was 0.243. For the same molecule, the relative viability ([8]; first compound 0.8 µM) was 0.218, the relative viability ([8]; first compound 2.53 µM) was 0.143 and the relative viability ([8]; first compound 8 µM) was 0.259. For the same molecule, the relative viability ([9]; first compound 0.08 µM) was 0.215, the relative viability ([9]; first compound 0.253 µM) was 0.178 and the relative viability ([9]; first compound 0.8 µM) was 0.123. The relative viability ([9]; first compound 2.53 µM) was 0.104, the relative viability ([9]; first compound 8 µM) was 0.151 and the relative viability ([10]; first compound 0.08 µM) was 0.689. The relative viability ([10]; first compound 0.253 µM) was 0.816, the relative viability ([10]; first compound 0.8 µM) was 0.593 and the relative viability ([10]; first compound 2.53 µM) was 0.48. It also gave a relative viability ([10]; first compound 8 µM) of 0.533, a relative viability ([11]; first compound 0.08 µM) of 0.524 and a relative viability ([11]; first compound 0.253 µM) of 0.292. The relative viability ([11]; first compound 0.8 µM) was 0.456, the relative viability ([11]; first compound 2.53 µM) was 0.422 and the relative viability ([11]; first compound 8 µM) was 0.388. For the same molecule, the relative viability ([12]; first compound 0.08 µM) was 0.494, the relative viability ([12]; first compound 0.253 µM) was 0.598 and the relative viability ([12]; first compound 0.8 µM) was 0.49. It also gave a relative viability ([12]; first compound 2.53 µM) of 0.458 and a relative viability ([12]; first compound 8 µM) of 0.468.

Reference: the supplement of paper PMC10307832
